Measurements taken from patent publication US11396516B2, “Tricyclic compounds as Cyp1 inhibitors” (The General Hospital Corporation, priority 2017, dated 2022).
Where two headings read alike, the source gives them in different places.

What was measured:
[1] = tested on: zebrafish embryos treated with DOX (cardiomyopathy phenotype); assay: Zebrafish doxorubicin cardiomyopathy model (rescue from phenotype); format: in vivo; conditions: for rescue from the doxorubicin cardiomyopathy phenotype: zebrafish co-treated with doxorubicin, inhibitors at 10 μM; for protection against doxorubicin cardiotoxicity in the zebrafish model: co-treatment with doxorubicin
Experimental: Zebrafish embryos at 30 hours post-fertilization were treated with DOX at 100 μM in 96-well plates as previously described (Liu et al., 2014). Tested compounds were dissolved in DMSO and added at concentrations ranging from 3 nM to 10 μM (n=6 fish per dose; <1% DMSO v/v). The cardiomyopathy phenotype (decreased cardiac contraction, pericardial edema, and decreased tail blood flow) was assessed under light microscopy (5× magnification) at 40 hours post-treatment (hpt). Percent rescue from the cardiomyopathy phenotype was calculated for each concentration tested. Zebrafish were considered to be rescued from DOX-induced cardiomyopathy if all three features of the phenotype were absent. For the tested compounds, each dose-response experiment was repeated three times.
Dose-response curves were constructed using Prism (GraphPad).
Zebrafish were treated with DOX and assessed for the development of the cardiomyopathy phenotype (decreased cardiac contraction, pericardial edema, and decreased tail blood flow). Zebrafish were considered to be rescued if all three features of the cardiomyopathy phenotype were absent upon co-treatment with a tested compound. Referring to FIGS. 3-9, data are depicted as mean+/−standard error (n=6 fish per dose; each experiment performed in triplicate).

dhrs13l1 = assay: Zebrafish proteomics; format: in vivo; conditions: zebrafish embryos, visnagin 20 μM
rad9a = assay: Zebrafish proteomics; format: in vivo; conditions: zebrafish embryos, visnagin 20 μM
gstp2 = assay: Zebrafish proteomics; format: in vivo; conditions: zebrafish embryos, visnagin 20 μM
slc2a1a = assay: Zebrafish proteomics; format: in vivo; conditions: zebrafish embryos, visnagin 20 μM
CYP1A [2] = assay: Zebrafish proteomics; format: in vivo; conditions: zebrafish embryos, visnagin 20 μM
Experimental: (§1) The proteomics analysis was carried out as described in the material and methods section. All protein abundance values are normalized to DMSO-treated control zebrafish. * p<0.05 compared to the DMSO control using the Benjamini-Hochberg method of correcting for multiple hypotheses.

cyp1c1 = assay: Zebrafish proteomics; format: in vivo; conditions: zebrafish embryos, visnagin 20 μM
Experimental: as §1

cyp1b1 = assay: Zebrafish proteomics; format: in vivo; conditions: zebrafish embryos, visnagin 20 μM
Experimental: as §1

LOC100332237 = assay: Zebrafish proteomics; format: in vivo; conditions: zebrafish embryos, visnagin 20 μM
sqstm1 = assay: Zebrafish proteomics; format: in vivo; conditions: zebrafish embryos, visnagin 20 μM
thbs1b = assay: Zebrafish proteomics; format: in vivo; conditions: zebrafish embryos, visnagin 20 μM
CYP2C9 = CYP2C9 (Homo sapiens (Human), UniProt P11712); assay: CYP inhibition assay, human liver microsomes; format: biochemical; conditions: diclofenac 10 μM, reference sulfaphenazole
CYP2C9, sequence (P11712 whole entry): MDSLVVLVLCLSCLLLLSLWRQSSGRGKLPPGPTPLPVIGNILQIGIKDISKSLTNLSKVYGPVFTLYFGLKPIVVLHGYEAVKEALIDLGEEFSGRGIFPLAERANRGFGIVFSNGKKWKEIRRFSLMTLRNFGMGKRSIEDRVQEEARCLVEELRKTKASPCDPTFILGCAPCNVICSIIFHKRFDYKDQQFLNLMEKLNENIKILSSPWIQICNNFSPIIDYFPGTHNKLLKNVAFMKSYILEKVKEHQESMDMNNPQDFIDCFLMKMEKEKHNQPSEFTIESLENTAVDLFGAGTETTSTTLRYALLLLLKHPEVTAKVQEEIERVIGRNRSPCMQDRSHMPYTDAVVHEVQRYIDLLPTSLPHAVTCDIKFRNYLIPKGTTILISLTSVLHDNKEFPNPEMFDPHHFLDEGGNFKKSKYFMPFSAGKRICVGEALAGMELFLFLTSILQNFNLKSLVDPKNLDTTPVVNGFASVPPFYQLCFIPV
Experimental: (§2) CYP inhibition experiments were performed by Cerep Panlabs (Eurofins) using human liver microsomes and the following substrates: phenacetin 10 μM (CYP1A), buproprion 100 μM (CYP2B6), paclitaxel 10 μM (CYP2C8), diclofenac 10 μM (CYP 2C9), omeprazole 0.5 μM (CYP2C19), dextromethorphan 5 μM (CYP2D6), and testosterone 50 μM (CYP3A). Metabolites of each substrate were measured using LC-MS/MS. Mean percent inhibition was calculated using the following reference inhibitors: furafylline (CYP1A), clopidogrel (CYP2B6), montelukast (CYP2C8), sulfaphenazole (CYP2C9), oxybutynin (CYP2C19), quinidine (CYP2D6), and ketoconazole (CYP3A). […] All concentrations were tested in duplicate to obtain the final results.
(§3) The ability of the tested compounds to inhibit a panel of CYP enzymes in vitro was assessed using a series of human liver microsome assays.

CYP3A = CYP3A (Homo sapiens, UniProt P08684); assay: CYP inhibition assay, human liver microsomes; format: biochemical; conditions: testosterone 50 μM, reference ketoconazole
CYP3A, sequence (P08684 2-503 limits assumed): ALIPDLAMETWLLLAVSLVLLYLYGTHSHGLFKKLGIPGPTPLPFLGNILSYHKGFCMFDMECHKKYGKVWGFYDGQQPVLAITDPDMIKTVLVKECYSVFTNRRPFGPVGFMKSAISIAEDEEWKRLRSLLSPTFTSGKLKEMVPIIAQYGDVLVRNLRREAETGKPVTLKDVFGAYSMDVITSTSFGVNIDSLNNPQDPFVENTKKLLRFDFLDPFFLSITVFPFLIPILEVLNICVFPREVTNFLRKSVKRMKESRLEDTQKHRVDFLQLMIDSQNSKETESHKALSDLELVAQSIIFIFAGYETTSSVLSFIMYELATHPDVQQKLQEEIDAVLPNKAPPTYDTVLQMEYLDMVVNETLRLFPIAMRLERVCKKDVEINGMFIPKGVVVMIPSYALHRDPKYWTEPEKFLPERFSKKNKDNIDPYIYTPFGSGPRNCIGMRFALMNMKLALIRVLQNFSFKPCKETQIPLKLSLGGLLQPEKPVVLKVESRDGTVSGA
Experimental: as §2, §3

CYP2C8 = CYP2C8 (Homo sapiens (Human), UniProt P10632); assay: CYP inhibition assay, human liver microsomes; format: biochemical; conditions: paclitaxel 10 μM, reference montelukast
CYP2C8, sequence (P10632 whole entry): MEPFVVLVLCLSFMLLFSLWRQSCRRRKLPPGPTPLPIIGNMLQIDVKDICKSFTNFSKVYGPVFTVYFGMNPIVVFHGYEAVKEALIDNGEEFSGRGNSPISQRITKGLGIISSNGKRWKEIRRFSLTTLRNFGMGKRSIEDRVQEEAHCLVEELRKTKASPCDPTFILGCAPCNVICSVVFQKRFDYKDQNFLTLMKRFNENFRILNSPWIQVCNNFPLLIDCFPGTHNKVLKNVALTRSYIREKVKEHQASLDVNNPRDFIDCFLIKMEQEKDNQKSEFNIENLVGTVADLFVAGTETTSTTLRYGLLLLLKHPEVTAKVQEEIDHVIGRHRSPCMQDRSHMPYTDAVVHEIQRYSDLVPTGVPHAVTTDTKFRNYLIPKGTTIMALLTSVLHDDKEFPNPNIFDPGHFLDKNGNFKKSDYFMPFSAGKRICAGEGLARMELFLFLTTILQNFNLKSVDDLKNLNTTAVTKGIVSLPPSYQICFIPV
Experimental: as §2, §3

CYP2C19 = CYP2C19 (Homo sapiens (Human), UniProt P33261); assay: CYP inhibition assay, human liver microsomes; format: biochemical; conditions: omeprazole 0.5 μM, reference oxybutynin
CYP2C19, sequence (P33261 whole entry): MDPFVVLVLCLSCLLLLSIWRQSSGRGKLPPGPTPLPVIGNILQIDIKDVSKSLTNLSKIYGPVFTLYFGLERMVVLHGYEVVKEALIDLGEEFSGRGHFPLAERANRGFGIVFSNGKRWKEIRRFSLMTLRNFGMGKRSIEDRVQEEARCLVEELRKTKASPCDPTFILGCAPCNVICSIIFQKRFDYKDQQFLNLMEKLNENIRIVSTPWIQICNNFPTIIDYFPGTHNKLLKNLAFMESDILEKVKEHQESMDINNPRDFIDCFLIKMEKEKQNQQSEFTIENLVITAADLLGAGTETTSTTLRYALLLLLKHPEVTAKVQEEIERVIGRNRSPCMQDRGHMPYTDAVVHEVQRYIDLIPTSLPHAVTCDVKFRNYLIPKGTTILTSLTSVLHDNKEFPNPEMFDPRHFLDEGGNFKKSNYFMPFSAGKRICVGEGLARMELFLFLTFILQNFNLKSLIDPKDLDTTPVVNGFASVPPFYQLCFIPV
Experimental: as §2, §3

CYP2D6 = CYP2D6 (Homo sapiens (Human), UniProt P10635); assay: CYP inhibition assay, human liver microsomes; format: biochemical; conditions: dextromethorphan 5 μM, reference quinidine
CYP2D6, sequence (P10635 whole entry): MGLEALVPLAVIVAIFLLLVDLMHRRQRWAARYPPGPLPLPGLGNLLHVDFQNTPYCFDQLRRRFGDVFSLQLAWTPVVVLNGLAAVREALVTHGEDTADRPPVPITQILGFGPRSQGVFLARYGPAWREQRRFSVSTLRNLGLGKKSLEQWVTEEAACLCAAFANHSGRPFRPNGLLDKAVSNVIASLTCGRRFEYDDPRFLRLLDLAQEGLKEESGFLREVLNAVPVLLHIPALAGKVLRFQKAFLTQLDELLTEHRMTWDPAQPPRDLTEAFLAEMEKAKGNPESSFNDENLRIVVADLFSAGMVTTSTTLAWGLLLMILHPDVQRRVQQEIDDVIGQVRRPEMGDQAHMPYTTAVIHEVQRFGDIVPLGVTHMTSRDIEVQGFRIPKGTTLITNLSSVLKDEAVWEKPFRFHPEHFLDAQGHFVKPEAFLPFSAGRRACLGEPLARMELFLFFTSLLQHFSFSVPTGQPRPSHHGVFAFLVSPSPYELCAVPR
Experimental: as §2, §3

CYP1A [3] = biological target: CYP1A (Homo sapiens (Human), UniProt P05177); assay: CYP inhibition assay, human liver microsomes; format: biochemical
CYP1A (Homo sapiens (Human), UniProt P05177), sequence (P05177 whole entry): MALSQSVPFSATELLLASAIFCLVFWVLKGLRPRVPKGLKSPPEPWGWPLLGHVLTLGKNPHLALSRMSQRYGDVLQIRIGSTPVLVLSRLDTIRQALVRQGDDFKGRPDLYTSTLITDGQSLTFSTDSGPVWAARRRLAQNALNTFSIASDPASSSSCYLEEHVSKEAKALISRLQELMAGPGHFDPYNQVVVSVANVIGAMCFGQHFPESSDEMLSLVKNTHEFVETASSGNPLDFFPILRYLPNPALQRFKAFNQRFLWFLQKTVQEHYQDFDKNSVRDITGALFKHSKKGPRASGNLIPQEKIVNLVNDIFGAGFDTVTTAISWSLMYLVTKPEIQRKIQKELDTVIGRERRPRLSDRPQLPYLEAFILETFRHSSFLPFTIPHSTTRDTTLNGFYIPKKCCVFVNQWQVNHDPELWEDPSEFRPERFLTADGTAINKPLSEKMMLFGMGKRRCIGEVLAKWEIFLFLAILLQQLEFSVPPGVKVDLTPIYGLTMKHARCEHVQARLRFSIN
Experimental: as §2, §3

HL-1 cardiomyocytes = assay: Cultured HL-1 cardiomyocyte model (DOX-induced apoptosis, viability); format: cell-based, mouse; conditions: Mus musculus, HL-1; doxorubicin 5 μM, viability after 18 hours, CellTiter-Glo; read-out: EC50 in HL-1 Cells
Experimental: The cardiomyocyte cell line HL-1 derived from mouse atrial tumor was a gift from W. Claycomb. Cells were cultured as previously published (Claycomb et al., 1998) and treated with doxorubicin 5 μM with or without the tested compounds at a concentration up to 50 μM. Viability was assessed after 18 hours of using a CellTiter-Glo Luminescent assay from Promega. Each dose-response experiment was repeated three times.
Compounds were tested in HL-1 cultured cardiomyocytes to assess for efficacy in preventing DOX-induced apoptosis. Cell viability was assessed as described in the materials and methods section.

zebrafish embryos = assay: Zebrafish toxicity in the absence of doxorubicin (TD50); conditions: without doxorubicin
Experimental: Dose-response curves were constructed using Prism (GraphPad). Raw data representing percent rescue at each dose was log-transformed, and EC50 values were calculated using nonlinear regression analysis. The median toxic dose (TD50) was defined for each compound by assessing for pericardial edema, non-specific deformities, and death in the absence of doxorubicin treatment (data not shown). Concentrations at and above the TD50 (toxic dose) were excluded from dose-response curves.

[4] = Danio rerio, rescue from DOX cardiomyopathy phenotype, read-out: EC50 in the zebrafish DOX model
[5] = Danio rerio, rescue from DOX (100 μM) cardiomyopathy phenotype, 40 hours post-treatment, read-out: EC50 is zebrafish

Cc1ccccc1N=Nc1ccc(NC(=O)c2ccnn2C)c(C)c1 [CH-233191]
rescue from the doxorubicin cardiomyopathy phenotype [1]: significant rescue | protection against doxorubicin cardiotoxicity in the zebrafish model [1]: prevented DOX cardiomyopathy

4-ethoxy-7-methyl-5H-furo[3,2-g][1]-benzopyran-5-one [visnagin]
Protein Abundance (Normalized to DMSO) dhrs13l1 (dhrs13l1; 40 hours post-treatment): 0.89 | DOX/DOX+ visnagin protein abundance ratio dhrs13l1 (dhrs13l1): 2.79 | Protein Abundance (Normalized to DMSO) rad9a (rad9a; 40 hours post-treatment): 1.15 | DOX/DOX+ visnagin protein abundance ratio rad9a (rad9a): 2.50 | Protein Abundance (Normalized to DMSO) gstp2 (gstp2; 40 hours post-treatment): 0.89 | DOX/DOX+ visnagin protein abundance ratio gstp2 (gstp2): 2.14 | Protein Abundance (Normalized to DMSO) slc2a1a (slc2a1a; 40 hours post-treatment): 0.83 | DOX/DOX+ visnagin protein abundance ratio slc2a1a (slc2a1a): 2.23 | Protein Abundance (Normalized to DMSO) cyp1a (CYP1A [2]; 40 hours post-treatment): 0.84 | DOX/DOX+ visnagin protein abundance ratio cyp1a (CYP1A [2]): 7.03 | Protein Abundance (Normalized to DMSO) cyp1c1 (cyp1c1; 40 hours post-treatment): 0.80 | DOX/DOX+ visnagin protein abundance ratio cyp1c1 (cyp1c1): 7.57 | Protein Abundance (Normalized to DMSO) cyp1b1 (cyp1b1; 40 hours post-treatment): 0.94 | DOX/DOX+ visnagin protein abundance ratio cyp1b1 (cyp1b1): 5.31 | Protein Abundance (Normalized to DMSO) LOC100332237 (LOC100332237; 40 hours post-treatment): 0.96 | DOX/DOX+ visnagin protein abundance ratio LOC100332237 (LOC100332237): 2.34 | Protein Abundance (Normalized to DMSO) sqstm1 (sqstm1; 40 hours post-treatment): 0.98 | DOX/DOX+ visnagin protein abundance ratio sqstm1 (sqstm1): 2.43 | Protein Abundance (Normalized to DMSO) thbs1b (thbs1b; 40 hours post-treatment): 0.89 | DOX/DOX+ visnagin protein abundance ratio thbs1b (thbs1b): 2.39 | Mean % Inhibition CYP2C9 (CYP2C9): 1.7% | Mean % Inhibition CYP3A (CYP3A): 4.2% | Mean % Inhibition CYP2C8 (CYP2C8): 8.1% | Mean % Inhibition CYP2C19 (CYP2C19): 1.2% | Mean % Inhibition CYP2D6 (CYP2D6): 9.9% | IC50 (CYP1A [3]): 240 nM

c1cc2ccc3cccc4ccc(c1)c2c34 [pyrene]
EC50 [1, 4]: 3700 nM | rescue from the doxorubicin cardiomyopathy phenotype [1]: significant rescue | protection against doxorubicin cardiotoxicity in the zebrafish model [1]: prevented DOX cardiomyopathy

CCSC(=O)NCCOc1c2ccoc2cc2oc(=O)ccc12 [Example 5, S-ethyl (2-((7-oxo-7H-furo[3,2-g]chromen-4-yl)oxy)ethyl)carbamothioate]
EC50 [1, 5]: 3 nM

CC(C)(C)OC(=O)N1CC(COc2c3ccoc3cc3oc(=O)ccc23)C1 [Example 4, tert-butyl 3-(((7-oxo-7H-furo[3,2-g]chromen-4-yl)oxy)methyl)azetidine-1-carboxylate]
EC50 [1, 5]: 10 nM | EC50 (HL-1 cardiomyocytes): > 50000 nM

O=c1ccc2c(OCC3CO3)c3ccoc3cc2o1 (stereo not drawn) [Example 1, 4-(oxiran-2-ylmethoxy)-7H-furo[3,2-g]chromen-7-one]
EC50 [1, 5]: 52 nM | EC50 (HL-1 cardiomyocytes): > 50000 nM

COC(=O)c1csc(C(=O)c2c[nH]c3ccccc23)n1 [ITE, methyl 2-(1H-indole-3-carbonyl)-1,3-thiazole-4-carboxylate]
toxicity to zebrafish embryos without doxorubicin (zebrafish embryos): not toxic

CC(C)(C)OC(=O)NCCOc1c2ccoc2cc2oc(=O)ccc12 [Example 3]
EC50 [1, 5]: 3 nM | EC50 (HL-1 cardiomyocytes): > 50000 nM

O=C(NCCCOc1c2ccoc2cc2oc(=O)ccc12)Oc1ccccc1 [Example 6]
EC50 [1, 5]: 33 nM | EC50 (HL-1 cardiomyocytes): > 50000 nM

COc1cc(C=Cc2ccc(OC)cc2OC)cc(OC)c1 [2,4,3′,5′-tetramethoxystilbene]
EC50 [1, 4]: 8600 nM | rescue from the doxorubicin cardiomyopathy phenotype [1]: significant rescue | protection against doxorubicin cardiotoxicity in the zebrafish model [1]: prevented DOX cardiomyopathy

CC(C)(C)OC(=O)NCCOc1c2ccoc2cc2oc(=S)ccc12 [Example 7, tert-butyl (2-((7-thioxo-7H-furo[3,2-g]chromen-4-yl)oxy)ethyl)carbamate]
EC50 [1, 5]: 258 nM

O=c1cc(-c2ccccc2)oc2c1ccc1ccccc12 [α-naphthoflavone]
EC50 ([1]; rescue from DOX (100 μM) cardiomyopathy phenotype, 40 hours post-treatment, read-out: EC50 is zebrafish): 293 nM | rescue from the doxorubicin cardiomyopathy phenotype [1]: significant rescue | protection against doxorubicin cardiotoxicity in the zebrafish model [1]: prevented DOX cardiomyopathy
